Test results published in PubChem BioAssay (NCI).
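These data come from cells grown in 96-well plates and exposed to compound for 48 hours at five concentrations. GI50 = concentration required for 50% inhibition of growth. At the TGI there is no net growth.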

What was measured:
Assay in all cases: growth of human tumour cells (NCI), 48 h
786-0 renal = tested on: 786-0 renal
A498 renal = tested on: A498 renal
A549 NSCLC = tested on: A549 NSCLC
ACHN renal = tested on: ACHN renal
BT-549 breast = tested on: BT-549 breast
CAKI-1 renal = tested on: CAKI-1 renal
CCRF-CEM leukemia = tested on: CCRF-CEM leukemia
COLO 205 colon = tested on: COLO 205 colon
DU-145 prostate = tested on: DU-145 prostate
EKVX NSCLC = tested on: EKVX NSCLC
HCC-2998 colon = tested on: HCC-2998 colon
HCT-116 colon = tested on: HCT-116 colon
HCT-15 colon = tested on: HCT-15 colon
HL-60(TB) leukemia = tested on: HL-60(TB) leukemia
HOP-62 NSCLC = tested on: HOP-62 NSCLC
HOP-92 NSCLC = tested on: HOP-92 NSCLC
HS 578T breast = tested on: HS 578T breast
HT29 colon = tested on: HT29 colon
IGROV1 ovarian = tested on: IGROV1 ovarian
K-562 leukemia = tested on: K-562 leukemia
KM12 colon = tested on: KM12 colon
LOX IMVI melanoma = tested on: LOX IMVI melanoma
M14 melanoma = tested on: M14 melanoma
MALME-3M melanoma = tested on: MALME-3M melanoma
MCF7 breast = tested on: MCF7 breast
MDA-MB-231 breast = tested on: MDA-MB-231 breast
MDA-MB-435 = tested on: MDA-MB-435
MOLT-4 leukemia = tested on: MOLT-4 leukemia
NCI-H226 lung = tested on: NCI-H226 lung
NCI-H23 lung = tested on: NCI-H23 lung
NCI-H460 lung = tested on: NCI-H460 lung
NCI-H522 lung = tested on: NCI-H522 lung
NCI/ADR-RES ovarian = tested on: NCI/ADR-RES ovarian
OVCAR-3 ovarian = tested on: OVCAR-3 ovarian
OVCAR-4 ovarian = tested on: OVCAR-4 ovarian
OVCAR-5 ovarian = tested on: OVCAR-5 ovarian
OVCAR-8 ovarian = tested on: OVCAR-8 ovarian
PC-3 prostate = tested on: PC-3 prostate
RPMI-8226 leukemia = tested on: RPMI-8226 leukemia
RXF 393 renal = tested on: RXF 393 renal
SF-268 CNS = tested on: SF-268 CNS
SF-295 CNS = tested on: SF-295 CNS
SF-539 CNS = tested on: SF-539 CNS
SK-MEL-2 melanoma = tested on: SK-MEL-2 melanoma
SK-MEL-28 melanoma = tested on: SK-MEL-28 melanoma
SK-MEL-5 melanoma = tested on: SK-MEL-5 melanoma
SK-OV-3 ovarian = tested on: SK-OV-3 ovarian
SN12C renal = tested on: SN12C renal
SNB-19 CNS = tested on: SNB-19 CNS
SNB-75 CNS = tested on: SNB-75 CNS
SR leukemia = tested on: SR leukemia
SW-620 colon = tested on: SW-620 colon
T-47D breast = tested on: T-47D breast
TK-10 renal = tested on: TK-10 renal
U251 CNS = tested on: U251 CNS
UACC-62 melanoma = tested on: UACC-62 melanoma
UO-31 renal = tested on: UO-31 renal

In the case of `c1cncc(C2Nc3cccc4cccc(c34)N2)c1`, the GI50 (786-0 renal) is reported as over 100 µM, the TGI (786-0 renal) is reported as over 100 µM and the GI50 (A498 renal) is reported as 30.9 µM. It also gave a TGI (A498 renal) of over 100 µM, a GI50 (A549 NSCLC) of 38.8 µM and a TGI (A549 NSCLC) of over 100 µM. The GI50 (ACHN renal) was 17.3 µM, the TGI (ACHN renal) was 34.5 µM and the GI50 (BT-549 breast) was 29.5 µM. For the same molecule, the TGI (BT-549 breast) was 95 µM, the GI50 (CAKI-1 renal) was 48.7 µM and the TGI (CAKI-1 renal) was over 100 µM. It also gave a GI50 (CCRF-CEM leukemia) of 22.6 µM, a TGI (CCRF-CEM leukemia) of over 100 µM and a GI50 (COLO 205 colon) of 22.6 µM. It also gave a TGI (COLO 205 colon) of 46.6 µM, a GI50 (DU-145 prostate) of over 100 µM and a TGI (DU-145 prostate) of over 100 µM. The GI50 (EKVX NSCLC) was 36 µM, the TGI (EKVX NSCLC) was over 100 µM and the GI50 (HCC-2998 colon) was over 100 µM. For the same molecule, the TGI (HCC-2998 colon) was over 100 µM, the GI50 (HCT-116 colon) was 16.5 µM and the TGI (HCT-116 colon) was 31.6 µM. The GI50 (HCT-15 colon) was 26.3 µM, the TGI (HCT-15 colon) was over 100 µM and the GI50 (HL-60(TB) leukemia) was 36.6 µM. It also gave a TGI (HL-60(TB) leukemia) of over 100 µM, a GI50 (HOP-62 NSCLC) of 42.5 µM and a TGI (HOP-62 NSCLC) of over 100 µM. For the same molecule, the GI50 (HOP-92 NSCLC) was 22.3 µM, the TGI (HOP-92 NSCLC) was 61.2 µM and the GI50 (HS 578T breast) was 73.4 µM. The TGI (HS 578T breast) was over 100 µM, the GI50 (HT29 colon) was 31.8 µM and the TGI (HT29 colon) was over 100 µM. The GI50 (IGROV1 ovarian) was 11.8 µM, the TGI (IGROV1 ovarian) was 25.6 µM and the GI50 (K-562 leukemia) was 28.8 µM. It also gave a TGI (K-562 leukemia) of over 100 µM, a GI50 (KM12 colon) of 30.8 µM and a TGI (KM12 colon) of 97.7 µM. The GI50 (LOX IMVI melanoma) was 21.7 µM, the TGI (LOX IMVI melanoma) was 57.6 µM and the GI50 (M14 melanoma) was 46 µM. For the same molecule, the TGI (M14 melanoma) was over 100 µM, the GI50 (MALME-3M melanoma) was 25.6 µM and the TGI (MALME-3M melanoma) was 57.7 µM. The GI50 (MCF7 breast) was 18.7 µM, the TGI (MCF7 breast) was 60.6 µM and the GI50 (MDA-MB-231 breast) was 20.3 µM. It also gave a TGI (MDA-MB-231 breast) of 65.7 µM, a GI50 (MDA-MB-435) of 35.7 µM and a TGI (MDA-MB-435) of over 100 µM. The GI50 (MOLT-4 leukemia) was 42.5 µM, the TGI (MOLT-4 leukemia) was over 100 µM and the GI50 (NCI-H226 lung) was 80.5 µM. The TGI (NCI-H226 lung) was over 100 µM, the GI50 (NCI-H23 lung) was 77.6 µM and the TGI (NCI-H23 lung) was over 100 µM. The GI50 (NCI-H460 lung) was over 100 µM, the TGI (NCI-H460 lung) was over 100 µM and the GI50 (NCI-H522 lung) was 14.6 µM. The TGI (NCI-H522 lung) was 35.1 µM, the GI50 (NCI/ADR-RES ovarian) was 33.8 µM and the TGI (NCI/ADR-RES ovarian) was over 100 µM. For the same molecule, the GI50 (OVCAR-3 ovarian) was 17.8 µM, the TGI (OVCAR-3 ovarian) was 37.1 µM and the GI50 (OVCAR-4 ovarian) was 13.8 µM. The TGI (OVCAR-4 ovarian) was 27.3 µM, the GI50 (OVCAR-5 ovarian) was 88.7 µM and the TGI (OVCAR-5 ovarian) was over 100 µM. For the same molecule, the GI50 (OVCAR-8 ovarian) was 20 µM, the TGI (OVCAR-8 ovarian) was 48.6 µM and the GI50 (PC-3 prostate) was 18.5 µM. It also gave a TGI (PC-3 prostate) of 46.7 µM, a GI50 (RPMI-8226 leukemia) of 33.9 µM and a TGI (RPMI-8226 leukemia) of over 100 µM. For the same molecule, the GI50 (RXF 393 renal) was 16.8 µM, the TGI (RXF 393 renal) was 33 µM and the GI50 (SF-268 CNS) was 33.8 µM. It also gave a TGI (SF-268 CNS) of over 100 µM, a GI50 (SF-295 CNS) of 49.7 µM and a TGI (SF-295 CNS) of over 100 µM. The GI50 (SF-539 CNS) was 39 µM, the TGI (SF-539 CNS) was over 100 µM and the GI50 (SK-MEL-2 melanoma) was 30.9 µM. It also gave a TGI (SK-MEL-2 melanoma) of 64.4 µM, a GI50 (SK-MEL-28 melanoma) of 64 µM and a TGI (SK-MEL-28 melanoma) of over 100 µM. The GI50 (SK-MEL-5 melanoma) was 66.3 µM, the TGI (SK-MEL-5 melanoma) was over 100 µM and the GI50 (SK-OV-3 ovarian) was over 100 µM. It also gave a TGI (SK-OV-3 ovarian) of over 100 µM, a GI50 (SN12C renal) of 53.4 µM and a TGI (SN12C renal) of over 100 µM. For the same molecule, the GI50 (SNB-19 CNS) was over 100 µM, the TGI (SNB-19 CNS) was over 100 µM and the GI50 (SNB-75 CNS) was 17.9 µM. It also gave a TGI (SNB-75 CNS) of over 100 µM, a GI50 (SR leukemia) of 27.5 µM and a TGI (SR leukemia) of over 100 µM. The GI50 (SW-620 colon) was 18.4 µM, the TGI (SW-620 colon) was 36.3 µM and the GI50 (T-47D breast) was 2.62 µM. It also gave a TGI (T-47D breast) of 9.29 µM, a GI50 (TK-10 renal) of 26.8 µM and a TGI (TK-10 renal) of 73.6 µM. For the same molecule, the GI50 (U251 CNS) was 21.9 µM, the TGI (U251 CNS) was 54 µM and the GI50 (UACC-62 melanoma) was 38.7 µM. The TGI (UACC-62 melanoma) was over 100 µM, the GI50 (UO-31 renal) was 11.7 µM and the TGI (UO-31 renal) was 27.4 µM.
